Assay [1] deals with Mitogen-activated protein kinase kinase kinase kinase 1 (Homo sapiens) (UniProt Q92918). As to conditions: at 10 µM.
For assay [2], the target named is Serine/threonine-protein kinase pim-3 (Homo sapiens) (UniProt Q86V86). Briefly: Selectivity interaction (Kinase panel (DSF assay)) EUB0001558a PIM3.
Assay [3] concerns the target Serine/threonine-protein kinase RIO2 (Homo sapiens) (UniProt Q9BVS4). Briefly: Selectivity interaction (KinomeScan (DiscoverX)) EUB0000695a RIOK2. As to conditions: at 100 nM.
Assay [4] concerns the target T1, Protein arginine N-methyltransferase 9 (Homo sapiens) (UniProt Q6P2P2).
T1 sequence (whole entry): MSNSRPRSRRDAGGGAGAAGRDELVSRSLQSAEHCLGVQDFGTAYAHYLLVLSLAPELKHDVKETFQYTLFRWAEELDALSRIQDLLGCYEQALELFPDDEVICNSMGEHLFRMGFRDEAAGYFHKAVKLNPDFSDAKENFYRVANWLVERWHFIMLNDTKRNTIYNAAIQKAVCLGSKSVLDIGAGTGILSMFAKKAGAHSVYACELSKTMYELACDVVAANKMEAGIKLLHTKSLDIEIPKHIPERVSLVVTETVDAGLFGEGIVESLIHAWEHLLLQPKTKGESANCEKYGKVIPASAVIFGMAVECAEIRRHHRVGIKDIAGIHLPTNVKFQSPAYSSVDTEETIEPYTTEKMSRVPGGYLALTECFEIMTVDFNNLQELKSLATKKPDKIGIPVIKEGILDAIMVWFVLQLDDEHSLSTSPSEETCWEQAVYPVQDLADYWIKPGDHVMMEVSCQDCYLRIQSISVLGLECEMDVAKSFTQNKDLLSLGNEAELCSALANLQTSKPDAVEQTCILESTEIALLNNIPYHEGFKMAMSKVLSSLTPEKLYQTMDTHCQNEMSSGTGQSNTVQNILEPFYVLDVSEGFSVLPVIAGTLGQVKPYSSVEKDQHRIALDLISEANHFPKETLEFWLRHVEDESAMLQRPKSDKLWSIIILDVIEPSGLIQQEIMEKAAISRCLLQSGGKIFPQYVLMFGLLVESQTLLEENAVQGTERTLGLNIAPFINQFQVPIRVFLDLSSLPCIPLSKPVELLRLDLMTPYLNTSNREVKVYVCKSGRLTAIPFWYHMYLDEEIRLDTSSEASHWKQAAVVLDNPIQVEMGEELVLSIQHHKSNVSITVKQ
As to conditions: at 1 µM.

Assay [5] has as its target Fibroblast growth factor receptor 4 (Homo sapiens, UniProt P22455). Put plainly: Selectivity interaction (KinomeScan (DiscoverX)) EUB0000607a FGFR4. As to conditions: at 10 µM.
In assay [6] the target is Angiopoietin-1 receptor (Homo sapiens) (UniProt Q02763). Briefly: Selectivity interaction (SelectScreen profiling (Invitrogen)) EUB0000607a TEK. The following applies: at 2 µM.
Assay [7] has as its target T2, Mitogen-activated protein kinase kinase kinase 5 (Homo sapiens) (UniProt Q99683).
T2 sequence (whole entry): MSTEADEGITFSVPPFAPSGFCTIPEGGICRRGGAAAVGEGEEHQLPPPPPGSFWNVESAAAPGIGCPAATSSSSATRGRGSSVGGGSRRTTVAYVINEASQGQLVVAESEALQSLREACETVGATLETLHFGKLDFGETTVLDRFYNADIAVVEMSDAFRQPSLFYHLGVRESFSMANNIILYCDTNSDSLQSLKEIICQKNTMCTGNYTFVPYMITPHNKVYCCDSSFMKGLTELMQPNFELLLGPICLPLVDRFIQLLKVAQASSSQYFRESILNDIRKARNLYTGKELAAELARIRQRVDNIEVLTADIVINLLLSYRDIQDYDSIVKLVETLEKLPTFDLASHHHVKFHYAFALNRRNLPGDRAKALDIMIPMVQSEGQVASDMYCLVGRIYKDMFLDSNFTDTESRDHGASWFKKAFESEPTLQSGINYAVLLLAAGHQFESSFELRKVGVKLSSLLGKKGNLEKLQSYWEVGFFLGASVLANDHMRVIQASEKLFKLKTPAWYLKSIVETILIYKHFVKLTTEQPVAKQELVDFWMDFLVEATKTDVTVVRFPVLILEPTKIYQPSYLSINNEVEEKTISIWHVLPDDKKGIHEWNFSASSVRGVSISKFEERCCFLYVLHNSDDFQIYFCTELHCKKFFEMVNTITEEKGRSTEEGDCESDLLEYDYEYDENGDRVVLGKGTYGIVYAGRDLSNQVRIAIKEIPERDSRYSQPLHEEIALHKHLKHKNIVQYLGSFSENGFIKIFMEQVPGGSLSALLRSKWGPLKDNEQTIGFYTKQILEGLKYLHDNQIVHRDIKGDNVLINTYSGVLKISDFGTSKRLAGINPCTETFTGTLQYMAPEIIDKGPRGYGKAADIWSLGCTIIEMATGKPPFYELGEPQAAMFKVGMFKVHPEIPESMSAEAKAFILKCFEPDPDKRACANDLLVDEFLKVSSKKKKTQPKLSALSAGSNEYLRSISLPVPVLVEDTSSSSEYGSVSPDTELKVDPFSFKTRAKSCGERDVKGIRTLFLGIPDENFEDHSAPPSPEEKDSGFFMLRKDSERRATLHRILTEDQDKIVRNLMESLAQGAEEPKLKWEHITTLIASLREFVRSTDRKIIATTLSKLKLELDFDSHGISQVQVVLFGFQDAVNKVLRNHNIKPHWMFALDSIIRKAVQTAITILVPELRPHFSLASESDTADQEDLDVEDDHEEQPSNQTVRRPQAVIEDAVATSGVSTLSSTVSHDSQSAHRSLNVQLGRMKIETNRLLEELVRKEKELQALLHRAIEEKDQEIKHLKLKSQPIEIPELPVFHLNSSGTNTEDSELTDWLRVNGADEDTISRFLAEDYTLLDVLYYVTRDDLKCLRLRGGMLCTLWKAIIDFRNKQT
Briefly: Selectivity interaction (Kinase panel (DSF assay)) EUB0001489b MAP3K5. On the technique in general: Differential scanning fluorimetry follows unfolding on heating by fluorescence.

Angiopoietin-1 receptor (Homo sapiens), sequence (Q02763 whole entry): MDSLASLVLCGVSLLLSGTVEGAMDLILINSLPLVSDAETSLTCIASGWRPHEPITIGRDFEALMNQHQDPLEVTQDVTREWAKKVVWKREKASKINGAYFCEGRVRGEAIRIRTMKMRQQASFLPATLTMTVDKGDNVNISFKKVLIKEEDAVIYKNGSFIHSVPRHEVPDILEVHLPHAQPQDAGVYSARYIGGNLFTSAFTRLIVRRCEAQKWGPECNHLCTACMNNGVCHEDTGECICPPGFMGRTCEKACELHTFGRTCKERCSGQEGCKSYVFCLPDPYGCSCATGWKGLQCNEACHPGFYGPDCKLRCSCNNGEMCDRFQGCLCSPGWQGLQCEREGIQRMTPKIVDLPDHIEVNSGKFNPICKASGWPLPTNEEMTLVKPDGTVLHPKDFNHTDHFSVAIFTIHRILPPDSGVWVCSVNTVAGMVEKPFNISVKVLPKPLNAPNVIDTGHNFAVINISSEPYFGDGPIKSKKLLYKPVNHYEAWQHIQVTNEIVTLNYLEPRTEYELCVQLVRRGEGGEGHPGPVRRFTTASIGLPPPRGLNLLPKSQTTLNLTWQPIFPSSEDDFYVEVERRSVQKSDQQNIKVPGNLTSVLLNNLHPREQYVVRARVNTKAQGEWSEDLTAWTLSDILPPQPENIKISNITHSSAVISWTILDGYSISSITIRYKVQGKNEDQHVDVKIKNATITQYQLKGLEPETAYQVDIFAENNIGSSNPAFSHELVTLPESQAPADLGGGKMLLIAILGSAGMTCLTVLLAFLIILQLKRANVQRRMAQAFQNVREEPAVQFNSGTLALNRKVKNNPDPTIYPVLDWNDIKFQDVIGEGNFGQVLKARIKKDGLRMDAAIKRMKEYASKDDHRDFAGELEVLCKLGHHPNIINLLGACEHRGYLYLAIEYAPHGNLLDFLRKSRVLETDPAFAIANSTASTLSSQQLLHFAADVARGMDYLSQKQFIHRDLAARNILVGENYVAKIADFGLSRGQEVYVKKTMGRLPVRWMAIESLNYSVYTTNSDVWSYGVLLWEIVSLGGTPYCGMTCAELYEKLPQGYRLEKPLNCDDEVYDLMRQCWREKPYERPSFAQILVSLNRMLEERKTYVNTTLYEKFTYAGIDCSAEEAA
Mitogen-activated protein kinase kinase kinase kinase 1 (Homo sapiens), sequence (Q92918 whole entry, looked up): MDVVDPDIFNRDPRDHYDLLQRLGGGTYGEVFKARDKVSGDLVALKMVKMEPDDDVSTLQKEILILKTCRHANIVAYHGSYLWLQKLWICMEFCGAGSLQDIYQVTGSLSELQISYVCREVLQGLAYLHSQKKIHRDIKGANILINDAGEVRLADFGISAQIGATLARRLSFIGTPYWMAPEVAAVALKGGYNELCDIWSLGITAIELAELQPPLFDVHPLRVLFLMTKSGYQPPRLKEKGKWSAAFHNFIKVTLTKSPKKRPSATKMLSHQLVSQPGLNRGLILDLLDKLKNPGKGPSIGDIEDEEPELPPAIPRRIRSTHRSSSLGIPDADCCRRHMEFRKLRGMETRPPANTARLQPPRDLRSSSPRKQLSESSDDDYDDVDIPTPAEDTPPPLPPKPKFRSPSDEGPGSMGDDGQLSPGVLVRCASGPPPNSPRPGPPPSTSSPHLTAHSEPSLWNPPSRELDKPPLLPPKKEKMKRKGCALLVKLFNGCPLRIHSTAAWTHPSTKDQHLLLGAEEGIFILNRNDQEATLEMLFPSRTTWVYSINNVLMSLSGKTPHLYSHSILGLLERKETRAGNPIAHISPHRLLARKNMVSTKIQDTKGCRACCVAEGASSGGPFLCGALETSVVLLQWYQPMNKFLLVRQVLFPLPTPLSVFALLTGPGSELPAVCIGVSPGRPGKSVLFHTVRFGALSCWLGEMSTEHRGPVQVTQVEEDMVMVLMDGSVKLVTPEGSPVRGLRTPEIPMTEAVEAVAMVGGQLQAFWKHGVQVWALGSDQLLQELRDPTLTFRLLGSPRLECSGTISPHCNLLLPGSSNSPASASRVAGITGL
Serine/threonine-protein kinase RIO2 (Homo sapiens), sequence (Q9BVS4 whole entry, looked up): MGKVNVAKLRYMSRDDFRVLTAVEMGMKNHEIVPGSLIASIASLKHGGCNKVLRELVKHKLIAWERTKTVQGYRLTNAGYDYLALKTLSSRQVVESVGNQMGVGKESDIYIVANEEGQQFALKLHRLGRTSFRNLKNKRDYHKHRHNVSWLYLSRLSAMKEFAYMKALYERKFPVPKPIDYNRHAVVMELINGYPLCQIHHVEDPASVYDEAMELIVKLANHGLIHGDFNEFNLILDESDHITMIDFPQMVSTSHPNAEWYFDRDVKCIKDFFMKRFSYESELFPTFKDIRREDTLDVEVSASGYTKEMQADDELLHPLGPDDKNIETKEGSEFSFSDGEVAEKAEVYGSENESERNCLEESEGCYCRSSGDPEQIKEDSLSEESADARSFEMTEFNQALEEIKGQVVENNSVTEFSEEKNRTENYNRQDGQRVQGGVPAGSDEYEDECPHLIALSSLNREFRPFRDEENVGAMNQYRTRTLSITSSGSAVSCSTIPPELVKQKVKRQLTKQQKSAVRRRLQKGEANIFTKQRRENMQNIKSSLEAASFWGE
Fibroblast growth factor receptor 4, sequence (P22455 22-802 limits assumed): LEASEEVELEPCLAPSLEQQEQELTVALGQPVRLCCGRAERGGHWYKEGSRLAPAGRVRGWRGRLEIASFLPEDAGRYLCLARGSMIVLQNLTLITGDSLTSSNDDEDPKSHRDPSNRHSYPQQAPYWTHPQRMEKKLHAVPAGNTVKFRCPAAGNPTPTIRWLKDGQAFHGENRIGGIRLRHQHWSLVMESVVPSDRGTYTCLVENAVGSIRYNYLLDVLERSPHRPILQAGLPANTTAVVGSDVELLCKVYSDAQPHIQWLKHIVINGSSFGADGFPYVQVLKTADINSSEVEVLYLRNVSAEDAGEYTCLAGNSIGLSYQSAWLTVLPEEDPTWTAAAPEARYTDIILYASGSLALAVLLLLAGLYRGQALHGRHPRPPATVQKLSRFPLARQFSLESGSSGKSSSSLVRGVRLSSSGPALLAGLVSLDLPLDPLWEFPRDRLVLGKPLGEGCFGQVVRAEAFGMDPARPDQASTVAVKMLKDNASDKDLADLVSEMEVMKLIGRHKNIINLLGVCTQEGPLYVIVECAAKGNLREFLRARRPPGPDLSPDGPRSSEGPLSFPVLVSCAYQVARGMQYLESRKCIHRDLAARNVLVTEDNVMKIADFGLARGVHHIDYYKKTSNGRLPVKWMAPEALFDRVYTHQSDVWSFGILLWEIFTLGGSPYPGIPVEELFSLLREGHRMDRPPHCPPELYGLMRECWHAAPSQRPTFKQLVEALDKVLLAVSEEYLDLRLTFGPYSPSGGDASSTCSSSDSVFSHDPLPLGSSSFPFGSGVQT

For the molecule `Cc1cc([C@@H](C)Nc2ccccc2C(=O)O)c2nc(N3CCOCC3)cc(=O)n2c1` [AZD-6482], the % of control in assay [1] worked out at 100%.

As to `CC(C)(O)[C@H](F)CN1Cc2cc(NC(=O)c3cnn4cccnc34)c(N3CCOCC3)cc2C1=O`, the dTM in assay [2] was 1 K.

Take `Cc1cc(F)c(C(=O)Nc2cccc(-c3nncn3C(C)C)n2)cc1-n1cnc(C2CC2)c1`: the % of control in assay [3] came out at 100%.

Regarding `CNCCN1CCC(c2cc(CN(C)C(=O)c3cccc(Oc4ccccc4)c3)ccn2)CC1`, the % activity in assay [4] is more than 90%.

Regarding `CNC(=O)Nc1ccc(-c2nc(N3CC4CCC(C3)O4)c3cnn(C4CCC5(CC4)OCCO5)c3n2)cc1`, the % of control in assay [5] is 62%. In addition, in assay [6], the % of inhibition worked out at 10%.

On to `CN1CCN(C(=O)c2ccc3cc2OCCOCCNc2ccn4ncc-3c4n2)CC1`, for which the dTM in assay [7] worked out at 3.2 K.

For the origin of these results see ChEMBL document CHEMBL5465560, “Selectivity Literature for EUbOPEN Chemogenomic Library” (2024).
